Source: ChEMBL document CHEMBL5500378, “Discovery of 4-benzylpiperazinequinoline BChE inhibitor that suppresses neuroinflammation for the treatment of Alzheimer's disease” (Eur J Med Chem, 2024)
pIC50: −log10 of the molar value. Calls of active or inactive are those of the source. No cut-off for these calls is given here.

Legend:
[1] = Half life in Sprague-Dawley rat at 10 mg/kg, iv measured for 2880 mins by LC-MS/MS analysis; assay type: ADME, organism-based; details: in vivo, 48 h
[2] = Toxicity in ICR mouse assessed as body weight change administered orally for 14 days consecutively; details: in vivo, po, 336 h, time 14 day
[3] = Toxicity in ICR mouse assessed as animal death administered orally; details: in vivo, po
[4] = Metabolic stability in human liver microsomes assessed as half life at 2 uM incubated for 60 mins by LC-MS/MS analysis; assay type: ADME, Microsome
BV-2 [5] = test: Inhibition of ROS production in Amyloid beta(1 to 42)-induced neuronal damage in mouse BV-2 cells assessed as decrease in green fluorescence intensity at 5 uM by microscopic analysis; assay type: functional, cell-based
[6] = Toxicity in ICR mouse model of Amyloid beta(1 to 42)-induced cognitive impairment assessed as change in body appearance at 10 mg/kg, IG for 12 days; assay type: organism-based; details: in vivo, po, 288 h, time 12 day
[7] = MRT (infinity) in Sprague-Dawley rat at 10 mg/kg, iv measured for 2880 mins by LC-MS/MS analysis; assay type: ADME, organism-based; details: in vivo, 48 h
BV-2 [8] = test: Anti-inflammatory activity against mouse BV-2 cells assessed as decrease in LPS-induced IL-6 level at 2 to 6 uM preincubated for 1 hr followed by LPS addition and incubated overnight by ELISA; assay type: functional, cell-based; details: dose 2-6 µM
BV-2 [9] = test: Anti-inflammatory activity against mouse BV-2 cells assessed as decrease in LPS-induced TNF-alpha level at 5 uM preincubated for 1 hr followed by LPS addition and incubated overnight by immunofluorescence based analysis; assay type: functional, cell-based
[10] = Half life in Sprague-Dawley rat at 10 mg/kg, IG measured for 2880 mins by LC-MS/MS analysis; assay type: ADME, organism-based; details: in vivo, po
[11] = Half life in plasma of ICR mouse at 10 mg/kg, IG measured at 10 to 240 mins by LC-MS/MS analysis; assay type: ADME, organism-based; details: in vivo, po, time 10-240 min
[12] = Cmax in brain of ICR mouse at 10 mg/kg, IG measured at 10 to 240 mins by LC-MS/MS analysis; assay type: ADME, organism-based; details: po, time 10-240 min
Cholinesterase = Cholinesterase (Homo sapiens, UniProt P06276); test: Inhibition of human BChE using BTC as substrate incubated for 2 mins by Ellman's method
[13] = Neurotoxicity against mouse BV-2 cells by MTT assay; assay type: toxicity, cell-based
[14] = Ratio of AUC in brain to plasma of ICR mouse at 10 mg/kg, IG measured at 10 to 240 mins by LC-MS/MS analysis; assay type: ADME, organism-based; details: po, time 10-240 min
[15] = Cmax in plasma of ICR mouse at 10 mg/kg, IG measured at 10 to 240 mins by LC-MS/MS analysis; assay type: ADME, organism-based; details: in vivo, po, time 10-240 min
[16] = Toxicity in ICR mouse model of Amyloid beta(1 to 42)-induced cognitive impairment assessed as body weight change at 10 mg/kg, IG for 12 days; assay type: organism-based; details: in vivo, po, 288 h, time 12 day
[17] = AUC (0 to t) in Sprague-Dawley rat at 10 mg/kg, IG measured for 2880 mins by LC-MS/MS analysis; assay type: ADME, organism-based; details: in vivo, po
[18] = biological target: Acetylcholinesterase (Electrophorus electricus) (UniProt O42275); test: Inhibition of electric eel AChE using ATC as substrate at 10 uM incubated for 2 mins by Ellman's method relative to control
PC-12 = test: Neuroprotective activity against H2O2-induced neuronal damage in rat PC12 cells assessed as increase in cell viability at 20 uM pretreated for 1 hr followed by H2O2 addition measured after 24 hrs by MTT assay relative to control; assay type: functional; details: time 25 hrs
BV-2 [19] = test: Anti-inflammatory activity against mouse BV-2 cells assessed as decrease in LPS-induced IL-1beta level at 5 uM preincubated for 1 hr followed by LPS addition and incubated overnight by immunofluorescence based analysis; assay type: functional, cell-based

Sequence of Acetylcholinesterase (Electrophorus electricus) (O42275 24-633 limits assumed): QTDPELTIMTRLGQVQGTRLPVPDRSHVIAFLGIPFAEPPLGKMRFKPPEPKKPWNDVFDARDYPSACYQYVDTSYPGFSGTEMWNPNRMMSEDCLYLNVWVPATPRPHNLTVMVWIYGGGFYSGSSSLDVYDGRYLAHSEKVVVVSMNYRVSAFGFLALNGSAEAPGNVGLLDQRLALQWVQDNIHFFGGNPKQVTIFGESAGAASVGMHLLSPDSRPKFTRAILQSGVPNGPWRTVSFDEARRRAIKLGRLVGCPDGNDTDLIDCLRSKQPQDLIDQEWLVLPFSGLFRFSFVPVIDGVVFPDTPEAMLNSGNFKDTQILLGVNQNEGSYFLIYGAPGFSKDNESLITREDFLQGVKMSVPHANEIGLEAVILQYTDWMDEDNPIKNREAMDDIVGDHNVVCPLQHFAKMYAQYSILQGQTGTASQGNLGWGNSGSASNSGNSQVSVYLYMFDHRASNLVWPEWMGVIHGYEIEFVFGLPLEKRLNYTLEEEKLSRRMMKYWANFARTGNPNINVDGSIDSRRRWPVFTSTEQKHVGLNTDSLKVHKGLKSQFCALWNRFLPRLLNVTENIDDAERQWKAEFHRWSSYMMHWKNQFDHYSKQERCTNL
Sequence of Cholinesterase (P06276 whole entry): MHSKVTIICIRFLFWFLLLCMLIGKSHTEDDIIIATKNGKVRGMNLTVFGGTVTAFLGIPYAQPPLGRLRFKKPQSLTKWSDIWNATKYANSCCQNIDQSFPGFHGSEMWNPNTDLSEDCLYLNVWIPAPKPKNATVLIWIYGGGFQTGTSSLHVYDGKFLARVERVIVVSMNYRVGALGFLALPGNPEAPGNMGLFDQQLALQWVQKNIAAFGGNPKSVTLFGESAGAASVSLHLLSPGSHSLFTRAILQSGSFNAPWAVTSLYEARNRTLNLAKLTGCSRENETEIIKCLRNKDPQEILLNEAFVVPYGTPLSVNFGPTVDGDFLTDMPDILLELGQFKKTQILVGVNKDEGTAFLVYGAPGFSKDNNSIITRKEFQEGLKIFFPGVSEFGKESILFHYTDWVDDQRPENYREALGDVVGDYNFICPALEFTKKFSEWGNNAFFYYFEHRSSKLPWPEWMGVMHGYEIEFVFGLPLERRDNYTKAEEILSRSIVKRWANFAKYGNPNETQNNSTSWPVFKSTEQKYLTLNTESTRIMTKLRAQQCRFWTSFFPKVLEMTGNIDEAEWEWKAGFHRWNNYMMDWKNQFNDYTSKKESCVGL

SMILES: CCCc1ccc(C(=O)Nc2cnc3ccccc3c2N2CCN(Cc3ccccc3)CC2)cc1
- t1/2 [1]: 5.047 h
- Activity [2]: Non-Toxic
- Activity [3]: Non-Toxic
- half-life at 2 µM [4]: 0.762 h
- inhibition (BV-2 [5]): Active
- Activity [6]: Non-Toxic
- MRT [7]: 16.45 h
- Activity (BV-2 [8]): Active
- Activity (BV-2 [9]): Active
- half-life [10]: 2.81 h
- t1/2 [11]: 1.09 h
- Cmax [12]: 554 ng/mL
- pIC50 (Cholinesterase): 6.80
- Activity [13]: Not Active
- Kp [14]: 1.96
- Cmax [15]: 238.2 ng/mL
- Activity [16]: Non-Toxic
- AUC(0-t) at 48 h [17]: 5650 ng·h/mL
- inhibition [18]: < 50%
- Activity (PC-12): >80%
- Activity (BV-2 [19]): Active
